Format in all cases: biochemical
In one experiment the target is T1, recombinant human VAP-1 (Homo sapiens, UniProt Q16853).
T1 construct: purchased R&D systems
T1 sequence (Q16853 1-763): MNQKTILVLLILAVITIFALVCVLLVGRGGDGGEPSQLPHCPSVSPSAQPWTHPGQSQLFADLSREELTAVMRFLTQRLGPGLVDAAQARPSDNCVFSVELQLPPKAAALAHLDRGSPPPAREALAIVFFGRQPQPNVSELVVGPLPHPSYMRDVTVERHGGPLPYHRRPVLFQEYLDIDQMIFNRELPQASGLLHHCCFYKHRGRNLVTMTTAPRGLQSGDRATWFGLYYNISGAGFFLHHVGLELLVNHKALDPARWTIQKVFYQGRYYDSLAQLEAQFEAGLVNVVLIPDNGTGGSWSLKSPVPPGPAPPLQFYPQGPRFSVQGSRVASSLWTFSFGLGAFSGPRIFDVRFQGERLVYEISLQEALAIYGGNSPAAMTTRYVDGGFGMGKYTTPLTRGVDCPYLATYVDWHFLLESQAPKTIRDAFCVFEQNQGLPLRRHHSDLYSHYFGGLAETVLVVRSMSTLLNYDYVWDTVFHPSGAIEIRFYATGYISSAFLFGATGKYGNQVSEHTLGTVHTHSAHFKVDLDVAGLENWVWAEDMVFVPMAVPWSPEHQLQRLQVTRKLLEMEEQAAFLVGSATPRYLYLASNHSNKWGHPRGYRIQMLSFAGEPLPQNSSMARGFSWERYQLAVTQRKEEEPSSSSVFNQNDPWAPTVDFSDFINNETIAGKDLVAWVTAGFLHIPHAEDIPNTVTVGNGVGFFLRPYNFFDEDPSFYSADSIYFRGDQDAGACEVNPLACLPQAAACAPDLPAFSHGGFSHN
The experiment is described as follows: Activity evaluation on recombinant human VAP-1 (Amplex Red/HRP-coupled hydrogen peroxide assay, benzylamine substrate). Particulars: read-out: Inhibitory Activity (IC50, nM) human VAP-1. As for the experimental part:
(§1) The compounds according to the present technology were evaluated in terms of activity on recombinant human VAP-1 (R&D systems) by measuring the level of hydrogen peroxide in horseradish peroxidase (HRP)-coupled reaction using Amplex Red Hydrogen Peroxide Assay Kit (Molecular Probes, Invitrogen, USA). The experiment was carried out at room temperature using benzylamine as a substrate. In the HRP-coupled reaction, hydrogen peroxide oxidation of 10-acetyl-3,7-dihydroxyphenoxazine (Amplex Red reagent) produces resorufin, which is a highly fluorescent compound. Briefly, the test compound was dissolved in dimethyl sulfoxide (DMSO) at a concentration of 20 mM. The dose-response assessment was made by 1:3 serial dilution in DMSO, thereby creating a 8 point curve. The concentration of the upper part was controlled according to the efficacy of the compounds, followed by the dilution with a reaction buffer solution to obtain a final DMSO concentration of less than 1%. To each well of a 96 black well plate, human VAP-1 purified in 50 mM sodium phosphate buffer solution (pH7.4) was added. The test compounds dissolved in DMSO were incubated with the human VAP-1 enzymes at 37° C. for 30 minutes. After 30-minute incubation, each well was added with a reaction mixture containing 200 uM Amplex Red reagent prepared from 50 mM sodium phosphate buffer solution (pH 7.4), 1 mM benzylamine, and 1 U/mL HRP. Fluorescence intensity was measured at several time points during 1-2 hours using a microplate reader (Flexstation3, Molecular Devices) under the wavelength condition exciting at 544 nm and reading the emission at 590 nm. The inhibitory effect of the compounds was measured as a decrease (%) in the signal rate as compared to the control group without any inhibitor (only diluted DMSO). Data was fixed to a logistic model with four variables and IC50 value was calculated using GraphPad Prism program.

Experiment [1] concerns the target T2, recombinant human MAO-A (monoamine oxidase-A) (Homo sapiens, UniProt P21397).
T2 construct: purchased Sigma-Aldrich
T2 sequence (P21397 1-527): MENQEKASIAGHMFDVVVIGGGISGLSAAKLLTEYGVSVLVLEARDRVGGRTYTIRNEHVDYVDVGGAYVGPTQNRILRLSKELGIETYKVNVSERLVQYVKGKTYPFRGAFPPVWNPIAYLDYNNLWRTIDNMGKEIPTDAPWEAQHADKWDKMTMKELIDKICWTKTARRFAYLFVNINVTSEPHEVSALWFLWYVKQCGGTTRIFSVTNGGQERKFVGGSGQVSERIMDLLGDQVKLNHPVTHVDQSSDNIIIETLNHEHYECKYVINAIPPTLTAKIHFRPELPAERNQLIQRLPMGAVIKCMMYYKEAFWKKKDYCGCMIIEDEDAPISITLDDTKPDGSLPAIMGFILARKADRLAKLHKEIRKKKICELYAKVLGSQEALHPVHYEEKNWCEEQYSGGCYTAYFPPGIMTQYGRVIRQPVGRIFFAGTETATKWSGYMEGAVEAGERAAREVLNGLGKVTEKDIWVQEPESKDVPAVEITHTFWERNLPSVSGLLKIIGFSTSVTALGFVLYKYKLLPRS
Briefly: Activity evaluation on recombinant human MAO-A (Amplex Red/HRP-coupled assay, 0.5 mM tyramine substrate). To be noted: read-out: Inhibitory Activity (IC50, nM) MAO-A. As for the experimental part: as §1
(§2) In addition, the compounds according to the present technology were evaluated in terms of activity on a recombinant human MAO-A (monoamine oxidase-A, Sigma-Aldrich) and a recombinant human MAO-B (monoamine oxidase-B, Sigma-Aldrich) by using as substrates, 0.5 mM tyramine and 1 mM benzylamine, respectively, with a method similar to the activity evaluation method for recombinant human VAP-1. The compounds according to the present technology were also evaluated in terms of activity on a recombinant human DAO (diamine oxidase, R&D systems) by using as a substrate 1 mM putrescine with a method similar to the activity evaluation method for recombinant human VAP-1.

Experiment [2] concerns the target T3, recombinant human MAO-B (monoamine oxidase-B) (Homo sapiens, UniProt P27338).
T3 construct: purchased Sigma-Aldrich
T3 sequence (P27338 1-520): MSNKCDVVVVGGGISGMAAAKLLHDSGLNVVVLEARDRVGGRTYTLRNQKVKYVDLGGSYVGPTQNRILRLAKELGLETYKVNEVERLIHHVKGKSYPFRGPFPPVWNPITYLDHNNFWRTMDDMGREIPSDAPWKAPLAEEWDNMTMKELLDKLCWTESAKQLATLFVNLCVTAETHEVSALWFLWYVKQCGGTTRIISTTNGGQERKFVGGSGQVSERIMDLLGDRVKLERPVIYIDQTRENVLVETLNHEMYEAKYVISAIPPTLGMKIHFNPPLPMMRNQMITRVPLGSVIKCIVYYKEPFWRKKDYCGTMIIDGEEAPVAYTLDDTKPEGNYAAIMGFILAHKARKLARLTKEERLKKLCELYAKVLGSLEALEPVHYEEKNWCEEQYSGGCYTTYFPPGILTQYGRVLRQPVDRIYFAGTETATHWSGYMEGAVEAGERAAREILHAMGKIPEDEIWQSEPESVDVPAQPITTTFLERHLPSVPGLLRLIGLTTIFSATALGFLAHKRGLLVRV
The experiment is described as follows: Activity evaluation on recombinant human MAO-B (Amplex Red/HRP-coupled assay, 1 mM benzylamine substrate). To be noted: read-out: Inhibitory Activity (IC50, nM) MAO-B. As for the experimental part:
as §1, §2

Experiment [3] concerns the target T4, recombinant human DAO (diamine oxidase) (Homo sapiens, UniProt P19801).
T4 construct: purchased R&D systems
T4 sequence (P19801 20-751): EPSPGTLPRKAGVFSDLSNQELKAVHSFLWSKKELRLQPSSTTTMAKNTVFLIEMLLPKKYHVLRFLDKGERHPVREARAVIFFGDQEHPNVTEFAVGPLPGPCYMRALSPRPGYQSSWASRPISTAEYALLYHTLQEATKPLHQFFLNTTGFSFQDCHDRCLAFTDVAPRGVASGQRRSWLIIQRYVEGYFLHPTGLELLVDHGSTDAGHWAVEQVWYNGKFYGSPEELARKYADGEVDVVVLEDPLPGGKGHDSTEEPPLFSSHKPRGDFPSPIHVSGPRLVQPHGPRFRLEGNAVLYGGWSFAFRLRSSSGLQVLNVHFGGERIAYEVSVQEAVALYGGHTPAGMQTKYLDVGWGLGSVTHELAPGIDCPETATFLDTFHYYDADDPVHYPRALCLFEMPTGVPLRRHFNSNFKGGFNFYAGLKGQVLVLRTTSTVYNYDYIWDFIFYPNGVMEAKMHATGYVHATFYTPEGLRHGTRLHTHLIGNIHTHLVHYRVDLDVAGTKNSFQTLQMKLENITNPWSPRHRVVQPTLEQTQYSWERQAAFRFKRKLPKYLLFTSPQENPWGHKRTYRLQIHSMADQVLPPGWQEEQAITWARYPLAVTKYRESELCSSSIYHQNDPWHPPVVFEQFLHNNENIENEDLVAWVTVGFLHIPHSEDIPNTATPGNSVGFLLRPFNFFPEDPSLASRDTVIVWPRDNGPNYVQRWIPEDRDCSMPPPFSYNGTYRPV
The experiment is described as follows: Activity evaluation on recombinant human DAO (Amplex Red/HRP-coupled assay, 1 mM putrescine substrate). To be noted: read-out: Inhibitory Activity (IC50, nM) DAO. As for the experimental part: as §1, §2

Setting [4] is: recombinant human VAP-1, 30 min preincubation at 37° C., 1 mM benzylamine.
Setting [5] is: recombinant human VAP-1, benzylamine substrate.

Our source for the IC50 values is patent US11168073B2, “3,3-difluoroallylamines or salts thereof and pharmaceutical compositions comprising the same” (YUHAN CORPORATION, priority 2018, dated 2021).

In general, IC50 refers to the concentration needed to halve the response being measured.

Counter-ions that a name gives are not always drawn. Like-named read-outs stand apart in the source and are kept apart here.

`NCC(Cn1ncn(-c2cccc(Br)n2)c1=O)=C(F)F` [Example 8, 2-[2-(aminomethyl)-3,3-difluoro-allyl]-4-(6-bromo-2-pyridyl)-1,2,4-triazol-3-one Trifluoroacetate]: the IC50 on recombinant human VAP-1 (setting [4]) is 2.2 nM; in experiment [1] (0.5 mM tyramine), > 100000 nM; in experiment [2] (1 mM benzylamine), > 100000 nM; in experiment [3] (1 mM putrescine), 10500 nM.

As to `CCn1cc(-c2csc(Cn3cnn(CC(CN)=C(F)F)c3=O)c2)cn1` [Example 153, 2-[2-(aminomethyl)-3,3-difluoro-allyl]-4-[[4-(1-ethylpyrazol-4-yl)-2-thienyl]methyl]-1,2,4-triazol-3-one Trifluoroacetate], the IC50 on recombinant human VAP-1 (setting [4]) is 1.3 nM; in experiment [1] (0.5 mM tyramine), > 100000 nM; in experiment [2] (1 mM benzylamine) it was 29000 nM; in experiment [3] (1 mM putrescine), 36000 nM.

`NCC(Cn1ncn(-c2ccc(-c3ccc(N4CCNCC4)cc3)cc2F)c1=O)=C(F)F` [Example 32, 2-[2-(aminomethyl)-3,3-difluoro-allyl]-4-[2-fluoro-4-(4-piperazin-1-ylphenyl)phenyl]-1,2,4-triazol-3-one Ditrifluoroacetate]: the half-maximal inhibitory concentration (IC50) is 1.3 nM at recombinant human VAP-1 (setting [4]), > 100000 nM in experiment [1] (0.5 mM tyramine), 17000 nM in experiment [2] (1 mM benzylamine) and 670 nM in experiment [3] (1 mM putrescine).

Turning to `NCC(Cn1ncn(-c2cccc(-c3ccc(N4CCNCC4)nc3)n2)c1=O)=C(F)F` [Example 213, 2-[2-(aminomethyl)-3,3-difluoro-allyl]-4-[6-(6-piperazin-1-yl-3-pyridyl)-2-pyridyl]-1,2,4-triazol-3-one Ditrifluoroacetate], the IC50 is 2.5 nM at recombinant human VAP-1 (setting [5]), > 100000 nM in experiment [1] (0.5 mM tyramine substrate), > 100000 nM in experiment [2] (1 mM benzylamine substrate) and 1300 nM in experiment [3] (1 mM putrescine substrate).

Turning to `CC(=O)N1CCN(c2ccc(-c3csc(Cn4cnn(CC(CN)=C(F)F)c4=O)c3)cc2)CC1` [Example 188, 4-[[4-[4-(4-acetylpiperazin-1-yl)phenyl]-2-thienyl]methyl]-2-[2-(aminomethyl)-3,3-difluoro-allyl]-1,2,4-triazol-3-one Trifluoroacetate], the IC50 is 3.4 nM on recombinant human VAP-1 (setting [5]), > 100000 nM in experiment [1] (0.5 mM tyramine substrate), > 100000 nM in experiment [2] (1 mM benzylamine substrate) and 7400 nM in experiment [3] (1 mM putrescine substrate).

For `NCC(Cn1ncn(Cc2ccc(/C=C/c3cnc4c(c3)NC(=O)CO4)s2)c1=O)=C(F)F` [Example 161, 7-[(E)-2-[5-[[1-[2-(aminomethyl)-3,3-difluoro-allyl]-5-oxo-1,2,4-triazol-4-yl]methyl]-2-thienyl]vinyl]-1H-pyrido[2,3-b][1,4]oxazin-2-one Trifluoroacetate], the IC50 at recombinant human VAP-1 (setting [4]) is 0.2 nM; in experiment [1] (0.5 mM tyramine) it was > 100000 nM; in experiment [2] (1 mM benzylamine) it was > 100000 nM; in experiment [3] (1 mM putrescine), 54000 nM.

For the compound `CN(C)c1ncc(-c2ccc(Cn3cnn(CC(CN)=C(F)F)c3=O)s2)cc1F` [Example 115, 2-[2-(aminomethyl)-3,3-difluoro-allyl]-4-[[5-[6-(dimethylamino)-5-fluoro-3-pyridyl]-2-thienyl]methyl]-1,2,4-triazol-3-one Trifluoroacetate], the IC50 was 0.8 nM on recombinant human VAP-1 (setting [4]), > 100000 nM in experiment [1] (0.5 mM tyramine) and 11000 nM in experiment [3] (1 mM putrescine).

As to `NCC(Cn1ncn(-c2ccc(Br)nc2)c1=O)=C(F)F` [Example 7, 2-[2-(aminomethyl)-3,3-difluoro-allyl]-4-(6-bromo-3-pyridyl)-1,2,4-triazol-3-one Trifluoroacetate], the figures for the half-inhibitory concentration (IC50) (on recombinant human VAP-1 (setting [4]); in experiment [1] (0.5 mM tyramine); in experiment [2] (1 mM benzylamine)) were 9.4 nM, > 100000 nM and 6100 nM, respectively.

Consider `CN(C)c1ccc(C#Cc2ccc(Cn3cnn(CC(CN)=C(F)F)c3=O)s2)cn1` [Example 162, 2-[2-(aminomethyl)-3,3-difluoro-allyl]-4-[[5-[2-[6-(dimethylamino)-3-pyridyl]ethynyl]-2-thienyl]methyl]-1,2,4-triazol-3-one Trifluoroacetate], for which the IC50 at recombinant human VAP-1 (setting [4]) was 0.7 nM; in experiment [1] (0.5 mM tyramine), > 10000 nM; in experiment [3] (1 mM putrescine) it was > 10000 nM.
